# Measured values: patent US10858367B2, “Compounds” (GLAXOSMITHKLINE INTELLECTUAL PROPERTY DEVELOPMENT LIMITED, priority 2017, dated 2020)
# Structures can show the parent of a compound that is named as a salt.
# Legend:
# [1] = target: T1, LRRK2 Ser935 phosphorylation in SH-SY5Y cells over-expressing recombinant full length LRRK2 (Homo sapiens, UniProt Q5S007); assay: Recombinant cellular LRRK2 AlphaScreen assay; type: cell-based; details: human neuroblastoma SH-SY5Y cells, BacMam full length LRRK2, 60 minutes with compound, read-out: pIC50 in the recombinant cellular LRRK2 AlphaScreen assay (converted)
# T1 construct: A BacMam virus expressing full length recombinant LRRK2 was purchased from Invitrogen; host or cells: SH-SY5Y human neuroblastoma cells transduced with BacMam LRRK2 virus
# T1 sequence (Q5S007 whole entry): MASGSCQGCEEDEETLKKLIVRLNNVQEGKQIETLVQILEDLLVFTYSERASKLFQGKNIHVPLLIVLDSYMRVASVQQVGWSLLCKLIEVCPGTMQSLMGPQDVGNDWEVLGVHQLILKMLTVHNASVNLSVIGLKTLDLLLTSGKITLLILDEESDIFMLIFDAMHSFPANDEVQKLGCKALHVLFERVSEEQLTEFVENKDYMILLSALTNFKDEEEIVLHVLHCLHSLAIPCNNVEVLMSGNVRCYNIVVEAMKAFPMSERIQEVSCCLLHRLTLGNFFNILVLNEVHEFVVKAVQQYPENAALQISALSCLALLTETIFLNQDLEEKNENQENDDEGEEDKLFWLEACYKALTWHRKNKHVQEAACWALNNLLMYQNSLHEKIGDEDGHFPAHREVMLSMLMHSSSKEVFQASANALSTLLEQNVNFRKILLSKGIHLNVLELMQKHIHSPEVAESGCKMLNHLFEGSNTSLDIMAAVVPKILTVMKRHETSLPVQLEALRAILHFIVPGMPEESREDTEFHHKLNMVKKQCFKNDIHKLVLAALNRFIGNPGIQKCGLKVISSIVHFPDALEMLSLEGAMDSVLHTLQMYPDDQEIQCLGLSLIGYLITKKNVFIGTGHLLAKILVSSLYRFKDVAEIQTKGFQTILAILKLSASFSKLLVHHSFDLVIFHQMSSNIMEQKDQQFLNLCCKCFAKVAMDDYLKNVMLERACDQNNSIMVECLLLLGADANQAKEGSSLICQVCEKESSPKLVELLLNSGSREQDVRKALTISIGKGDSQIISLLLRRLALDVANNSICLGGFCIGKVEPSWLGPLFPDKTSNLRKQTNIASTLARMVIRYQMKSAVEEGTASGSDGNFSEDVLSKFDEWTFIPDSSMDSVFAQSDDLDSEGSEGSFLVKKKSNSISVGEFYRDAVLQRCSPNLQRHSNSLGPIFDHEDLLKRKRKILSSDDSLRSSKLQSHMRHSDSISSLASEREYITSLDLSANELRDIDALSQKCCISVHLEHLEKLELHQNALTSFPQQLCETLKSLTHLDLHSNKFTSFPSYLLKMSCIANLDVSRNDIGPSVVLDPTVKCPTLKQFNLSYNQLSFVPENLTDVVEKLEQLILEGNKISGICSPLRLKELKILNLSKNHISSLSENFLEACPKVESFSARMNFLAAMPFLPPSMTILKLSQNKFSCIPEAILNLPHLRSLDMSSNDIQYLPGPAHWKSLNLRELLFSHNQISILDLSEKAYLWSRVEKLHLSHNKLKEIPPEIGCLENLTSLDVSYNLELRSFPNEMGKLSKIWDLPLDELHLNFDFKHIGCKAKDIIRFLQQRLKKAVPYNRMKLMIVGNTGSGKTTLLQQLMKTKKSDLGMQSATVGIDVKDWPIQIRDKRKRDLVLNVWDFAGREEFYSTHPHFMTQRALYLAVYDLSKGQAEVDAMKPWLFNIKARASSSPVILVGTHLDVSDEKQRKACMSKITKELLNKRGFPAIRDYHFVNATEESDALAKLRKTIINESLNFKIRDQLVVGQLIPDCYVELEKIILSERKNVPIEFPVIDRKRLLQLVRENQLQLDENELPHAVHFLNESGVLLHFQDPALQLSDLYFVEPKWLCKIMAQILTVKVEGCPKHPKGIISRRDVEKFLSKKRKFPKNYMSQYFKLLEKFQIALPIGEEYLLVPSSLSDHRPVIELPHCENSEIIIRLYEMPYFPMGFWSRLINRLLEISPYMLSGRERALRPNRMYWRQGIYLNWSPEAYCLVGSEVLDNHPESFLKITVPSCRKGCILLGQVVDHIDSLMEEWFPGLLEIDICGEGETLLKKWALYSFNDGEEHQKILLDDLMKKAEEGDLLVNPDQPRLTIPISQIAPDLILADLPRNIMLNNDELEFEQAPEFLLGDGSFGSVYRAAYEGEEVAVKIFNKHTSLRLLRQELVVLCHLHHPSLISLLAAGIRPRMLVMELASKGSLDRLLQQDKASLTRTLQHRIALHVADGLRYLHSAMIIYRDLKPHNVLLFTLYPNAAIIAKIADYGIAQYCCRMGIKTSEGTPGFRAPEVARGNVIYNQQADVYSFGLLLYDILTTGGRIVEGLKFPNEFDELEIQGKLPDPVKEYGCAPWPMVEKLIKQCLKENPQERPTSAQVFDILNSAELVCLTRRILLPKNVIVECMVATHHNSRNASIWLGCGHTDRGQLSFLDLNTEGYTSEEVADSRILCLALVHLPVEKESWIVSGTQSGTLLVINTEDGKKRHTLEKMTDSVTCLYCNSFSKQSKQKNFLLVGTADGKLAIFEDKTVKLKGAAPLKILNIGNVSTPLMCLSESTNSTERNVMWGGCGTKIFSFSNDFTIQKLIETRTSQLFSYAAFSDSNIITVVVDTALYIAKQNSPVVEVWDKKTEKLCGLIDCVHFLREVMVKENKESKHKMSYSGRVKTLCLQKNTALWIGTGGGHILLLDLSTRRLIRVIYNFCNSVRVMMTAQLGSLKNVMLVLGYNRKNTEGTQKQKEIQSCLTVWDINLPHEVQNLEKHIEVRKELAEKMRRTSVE
# How it was run: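 SH-SY5Y cells transduced with BacMam full-length human LRRK2 (MOI 50) for 24 h, then treated with compound (top final 10 μM) for 60 min at 37° C. Lysate pSer935 LRRK2 quantified by AlphaScreen using anti-pS935 and total-LRRK2 antibodies. Values from sigmoidal dose-response fit.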
# [2] = target: T2, full length G2019 human LRRK2 (Homo sapiens, UniProt Q5S007, R50H); assay: Full length G2019 human LRRK2 Inhibition Mass Spectrometry assay; type: biochemical; details: 25 nM LRRK2 enzyme, 25 uM LRRKtide, 2 mM ATP; RapidFire mass spectrometry; read-out: pIC50 in the full length G2019 human LRRK2 Inhibition Mass Spectrometry assay (converted)
# T2 construct: made in house; host or cells: HEK293 6E cells transduced with BacMam virus (virus generated in Sf9 cells)
# T2 sequence (Q5S007 with tags, fused parts or gaps R50H): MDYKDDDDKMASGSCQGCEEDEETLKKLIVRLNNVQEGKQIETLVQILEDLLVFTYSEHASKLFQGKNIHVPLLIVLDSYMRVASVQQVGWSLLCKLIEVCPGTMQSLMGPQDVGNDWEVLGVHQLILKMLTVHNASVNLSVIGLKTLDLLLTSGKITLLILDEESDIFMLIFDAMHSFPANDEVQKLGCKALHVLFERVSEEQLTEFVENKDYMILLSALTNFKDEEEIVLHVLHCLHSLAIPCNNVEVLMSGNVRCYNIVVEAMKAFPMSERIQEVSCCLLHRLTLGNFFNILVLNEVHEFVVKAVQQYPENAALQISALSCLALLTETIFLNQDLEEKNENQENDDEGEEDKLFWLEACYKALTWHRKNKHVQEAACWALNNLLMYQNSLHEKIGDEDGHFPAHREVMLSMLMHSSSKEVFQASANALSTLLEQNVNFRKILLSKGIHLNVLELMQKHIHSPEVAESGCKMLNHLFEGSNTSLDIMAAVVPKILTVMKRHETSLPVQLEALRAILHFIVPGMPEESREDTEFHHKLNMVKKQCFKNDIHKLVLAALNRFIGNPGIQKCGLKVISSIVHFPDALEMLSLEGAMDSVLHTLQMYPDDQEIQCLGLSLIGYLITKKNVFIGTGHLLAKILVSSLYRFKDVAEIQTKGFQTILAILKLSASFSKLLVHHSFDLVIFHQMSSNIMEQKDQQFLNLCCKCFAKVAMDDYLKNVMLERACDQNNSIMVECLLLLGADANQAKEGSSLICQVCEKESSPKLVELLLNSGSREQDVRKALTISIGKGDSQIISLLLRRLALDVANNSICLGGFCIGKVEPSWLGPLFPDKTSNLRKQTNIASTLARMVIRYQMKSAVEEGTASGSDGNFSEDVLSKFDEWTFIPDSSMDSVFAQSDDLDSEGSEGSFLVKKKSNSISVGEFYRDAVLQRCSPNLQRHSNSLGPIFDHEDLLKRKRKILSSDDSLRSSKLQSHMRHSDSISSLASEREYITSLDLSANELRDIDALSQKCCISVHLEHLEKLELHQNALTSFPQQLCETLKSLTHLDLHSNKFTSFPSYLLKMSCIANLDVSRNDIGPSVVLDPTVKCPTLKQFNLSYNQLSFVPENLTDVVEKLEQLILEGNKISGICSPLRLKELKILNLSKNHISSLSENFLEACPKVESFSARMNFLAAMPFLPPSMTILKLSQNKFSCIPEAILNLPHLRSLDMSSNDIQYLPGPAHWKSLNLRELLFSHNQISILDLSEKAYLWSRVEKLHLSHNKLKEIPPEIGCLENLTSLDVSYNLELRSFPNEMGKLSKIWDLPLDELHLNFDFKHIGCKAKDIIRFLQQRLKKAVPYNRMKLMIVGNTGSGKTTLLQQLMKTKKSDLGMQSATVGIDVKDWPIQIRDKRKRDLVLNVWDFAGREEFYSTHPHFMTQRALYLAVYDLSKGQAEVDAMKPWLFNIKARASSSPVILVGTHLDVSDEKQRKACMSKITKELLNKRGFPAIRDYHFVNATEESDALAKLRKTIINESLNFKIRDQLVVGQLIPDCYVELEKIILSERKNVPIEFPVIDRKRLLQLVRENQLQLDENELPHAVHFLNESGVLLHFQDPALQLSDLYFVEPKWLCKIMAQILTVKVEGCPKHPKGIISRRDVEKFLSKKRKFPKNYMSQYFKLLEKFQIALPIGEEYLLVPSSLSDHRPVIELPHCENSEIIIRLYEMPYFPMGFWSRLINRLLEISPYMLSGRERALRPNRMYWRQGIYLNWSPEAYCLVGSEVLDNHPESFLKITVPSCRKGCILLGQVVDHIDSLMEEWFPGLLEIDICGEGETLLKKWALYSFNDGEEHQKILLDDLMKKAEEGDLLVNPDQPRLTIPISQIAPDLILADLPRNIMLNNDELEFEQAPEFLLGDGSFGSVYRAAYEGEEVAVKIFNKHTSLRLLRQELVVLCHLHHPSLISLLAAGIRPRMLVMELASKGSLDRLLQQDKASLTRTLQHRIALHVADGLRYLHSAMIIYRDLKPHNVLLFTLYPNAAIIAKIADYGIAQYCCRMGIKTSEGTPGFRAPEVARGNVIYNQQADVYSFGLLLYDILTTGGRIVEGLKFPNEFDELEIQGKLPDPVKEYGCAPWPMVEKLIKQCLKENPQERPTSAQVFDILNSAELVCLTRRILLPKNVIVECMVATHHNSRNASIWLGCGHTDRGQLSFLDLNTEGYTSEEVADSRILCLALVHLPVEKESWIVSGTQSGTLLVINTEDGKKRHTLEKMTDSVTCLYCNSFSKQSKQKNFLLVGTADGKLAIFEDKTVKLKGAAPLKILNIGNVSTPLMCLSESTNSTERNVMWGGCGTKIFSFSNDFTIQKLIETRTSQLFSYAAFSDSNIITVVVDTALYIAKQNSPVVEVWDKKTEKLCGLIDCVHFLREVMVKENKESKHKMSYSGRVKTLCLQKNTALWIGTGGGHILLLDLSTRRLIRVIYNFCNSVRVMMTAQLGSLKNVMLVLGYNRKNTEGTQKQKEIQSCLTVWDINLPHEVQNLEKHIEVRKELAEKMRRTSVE
# From the text: a. Full Length G2019 Human LRRK2 Inhibition Mass Spectrometry Assay
# This assay for Leucine Rich Repeat Kinase 2 (LRRK2) inhibition is based on the direct measurement of the peptide ‘LRRKtide’ (LRRKtide: RLGRDKYKT*LRQIRQ and “*” refers to the site of phosphorylation.) and phosphorylated ‘LRRKtide’ using a high throughput RapidFire mass spectrometry assay. Inhibitors are compounds that reduce the conversion of LRRKtide to phospho-LRRKtide.
# Human G2019 LRRK2 Plasmid Preparation
# Primers used for PCR cloning: • pHTBV-F:SEQ ID No: 1 • LRRK2 wt-F1:SEQ ID No: 2 • LRRK2 wt-R1: SEQ ID No: 3 • LRRK2 wt-F2: SEQ ID No: 4 • LRRK2 wt-R2: SEQ ID No: 5 • LRRK2 wt-F3:SEQ ID No: 6 • pHTBV-R: SEQ ID No: 7 pHTBV1-N-Flag-hu LRRK2 was generated by PCR amplifying the full length LRRK2 sequence with N terminal Flag tag from pcDNA3.1(+)_Human_LRRK2 (NCBI Reference Sequence: NP_940980.3) with the primers described above, and cloned into pHTBV1mcs3 vector between BamHI and KpnI sites.
# The G2019 full length Flag-LRRK2 coding sequence is SEQ ID No: 8.
# The translated amino acid sequence for human G2019 full length N terminal flag tagged LRRK2 protein is SEQ ID No: 9.
# Protein Expression & Purification a) Expression of Flag Tagged Full Length G2019 Human LRRK2
# HEK293 6E cells were incubated in a 37° C. incubator with a humidified atmosphere of 5% CO2 on an orbital shaker rotating at 110 rpm. On the day of transduction, the cell viability was higher than 98% and the cell density was in the range of 1×10^6˜1.5×10^6 cells/ml. HEK293 6E cells were centrifuged at 1,000 rpm for 10 min, and then the cells were resuspended in fresh Freestyle 293 expression medium (Invitrogen: 12338) with 0.1% F-68(Invitrogen: 24040-032) but without antibiotics (G418) at density of 1×10^6 cells/ml. BacMam virus with Flag-hu LRRK2 (genotypically normal) gene was centrifuged at 40,000 g for 2 hours, then resuspended in fresh Freestyle 293 expression medium. The resuspended virus was added into the cells in at MOI of 10. The cells were incubated in a 37° C. incubator with a humidified atmosphere of 5% CO2 in air on an orbital shaker rotating at 110 rpm. Cultures were harvested at approximately 48 hours post-transduction by centrifugation at 4,000 rpm for 20 min and pellets were frozen for purification. […]
# b) Purification of Flag Tagged Full Length G2019 Human LRRK2
# The suspended cells were lysed by sonication on ice for 30 min (2 secs on/4 sec off, 20% amplitude), and centrifuged at 10,000 rpm for 30 minutes at 4° C. The supernatant was incubated with 1 mL per litre of cell culture of anti-Flag magnetic beads (Sigma-Aldrich: M8823) at 4° C. for 3 hours, then the beads were washed by 5 mL (5 column volume) binding buffer (50 mM Tris pH7.5@ 4 C, 500 mM NaCl, 0.5 mM EDTA, 0.1% TritonX-100, 10% glycerol, freshly add 2 mM DTT) for three times. The Flag tagged LRRK2 proteins were eluted by Elution buffer (50 mM Tris pH7.5@ 4 C, 500 mM NaCl, 0.5 mM EDTA, 0.1% TritonX-100, 10% glycerol, freshly add 2 mM DTT, 250 ug/ml Flag peptide (Sigma-Aldrich:F3290)) at 4° C. for 2 hours. Flag peptide was removed by Zeba Spin Desalting Columns, 7K MWCO (Thermo-Fisher: 89893) and the buffer of eluted LRRK2 proteins was exchanged into Storage Buffer (50 mM Tris pH7.5@4 C, 150 mM NaCl, 0.5 mM EDTA, 0.02% Triton X-100, 2 mM DTT and 50% Glycerol) using Amicon Ultra Centrifugal Filter Units (100 kD) (Merck: UFC910096). Fractions containing LRRK2 proteins were pooled, aliquoted and stored at −80° C. Protein concentration was determined by Bradford protein assay, and protein purity was analyzed by NuPAG Novex 4-12% Bis-Tris Protein Gels (Invitrogen: NP0322BOX).
# Assay Protocol • 1) A 10 mM test compound was dissolved in 100% DMSO and serially diluted 1 in 4. 100 nL of this dilution series was then added to a 384 well, v bottom polypropylene plate, excluding columns 6 and 18. 100 nL of DMSO was added to columns 6 and 18 as controls wells. […]
Compound,IC50 [1],IC50 [2]
"COc1nc(N2C[C@H]3C[C@@H]2CO3)cc(-n2ncc3cc(C)c(C4CCN(CCC(=O)O)CC4F)cc32)n1 (single isomer, unassigned) [Example E158]",≤ 10 nM,≤ 100 nM
"COc1nc(N2C[C@@H]3C[C@H]2CO3)cc(-n2ncc3cc(C)c(C4CCN(CCC(=O)O)CC4F)cc32)n1 (single isomer, unassigned) [Example E160]",≤ 10 nM,≤ 100 nM
"Cc1nc(N2CC3OCC2C3O)cc(-n2ncc3cc(C)c(C4CCN([C@H]5CCOC5)CC4)cc32)n1 (single isomer, unassigned) [Example E176, TFA Salt]",≤ 1000 nM,≤ 100 nM
"Cc1nc(N2C[C@]3(CO)C[C@H]2CO3)cc(-n2ncc3cc(C)c(C4CCN([C@H]5CCOC5)CC4)cc32)n1 [Example E143, ((1S,4S)-5-(2-methyl-6-(5-methyl-6-(1-((S)-tetrahydrofuran-3-yl)piperidin-4-yl)-1H-indazol-1-yl)pyrimidin-4-yl)-2-oxa-5-azabicyclo[2.2.1]heptan-1-yl)methanol]",≤ 1000 nM,≤ 100 nM
"Cc1nc(N2C[C@H]3C[C@@H]2CO3)cc(-n2ncc3cc(C)c(C4CCN(CCC(=O)O)CC4)cc32)n1 [Example E162, 3-(4-(1-(6-((1R,4R)-2-oxa-5-azabicyclo[2.2.1]heptan-5-yl)-2-methylpyrimidin-4-yl)-5-methyl-1H-indazol-6-yl)piperidin-1-yl)propanoic Acid]",≤ 1000 nM,≤ 100 nM
"COc1nc(N2C[C@H]3C[C@@H]2CO3)cc(-n2ncc3cc(C)c(C4CCN(CCC(=O)O)CC4)cc32)n1 [Example E164, 3-(4-(1-(6-((1R,4R)-2-oxa-5-azabicyclo[2.2.1]heptan-5-yl)-2-methoxypyrimidin-4-yl)-5-methyl-1H-indazol-6-yl)piperidin-1-yl)propanoic Acid]",≤ 1000 nM,≤ 100 nM
"COc1nc(N2CC3(CO)CC2CO3)cc(-n2ncc3cc(C)c(C4CCN(C5COC5)CC4)cc32)n1 (stereo not shown) [Example E167, (5-(2-methoxy-6-(5-methyl-6-(1-(oxetan-3-yl)piperidin-4-yl)-1H-indazol-1-yl)pyrim-idin-4-yl)-2-oxa-5-azabicyclo[2.2.1]heptan-1-yl)methanol]",≤ 10 nM,≤ 10 nM
"Cc1nc(N2C[C@H]3C[C@@H]2CO3)cc(-n2ncc3cc(C)c(C4CCN(CCS(C)(=O)=O)CC4)cc32)n1 [Example E170, (1R,4R)-5-(2-methyl-6-(5-methyl-6-(1-(2-(methylsulfonyl)ethyl)piperidin-4-yl)-1H-indazol-1-yl)pyrimidin-4-yl)-2-oxa-5-azabicyclo[2.2.1]heptane]",,≤ 100 nM
"Cc1nc(N2C[C@@]3(CO)C[C@@H]2CO3)cc(-n2ncc3cc(C)c(C4CCOCC4)cc32)n1 [Example E173, ((1R,4R)-5-(2-methyl-6-(5-methyl-6-(tetrahydro-2H-pyran-4-yl)-1H-indazol-1-yl)pyrimidin-4-yl)-2-oxa-5-azabicyclo[2.2.1]heptan-1-yl)methanol]",,≤ 100 nM
"COc1nc(N2C[C@H]3C[C@@H]2CO3)cc(-n2ncc3cc(C)c(C4CCN(CCS(C)(=O)=O)CC4)cc32)n1 [Example E174, (1R,4R)-5-(2-methoxy-6-(5-methyl-6-(1-(2-(methylsulfonyl)ethyl)piperidin-4-yl)-1H-indazol-1-yl)pyrimidin-4-yl)-2-oxa-5-azabicyclo[2.2.1]heptane]",≤ 10 nM,≤ 100 nM
"COc1nc(N2C[C@H]3C[C@@H]2CO3)cc(-n2ncc3cc(C)c(C4C5CN([C@H]6CCOC6)CC54)cc32)n1 (stereo partly drawn) [Example E175, (1R,4R)-5-(2-methoxy-6-(5-methyl-6-(3-((S)-tetrahydrofuran-3-yl)-3-azabicyclo[3.1.0]hexan-6-yl)-1H-indazol-1-yl)pyrimidin-4-yl)-2-oxa-5-azabicyclo[2.2.1]heptane]",≤ 1000 nM,≤ 100 nM
"COc1nc(N2C[C@@]3(CO)C[C@@H]2CO3)cc(-n2ncc3cc(C)c(C4CCOCC4)cc32)n1 [Example E178, ((1R,4R)-5-(2-methoxy-6-(5-methyl-6-(tetrahydro-2H-pyran-4-yl)-1H-indazol-1-yl)pyrimidin-4-yl)-2-oxa-5-azabicyclo[2.2.1]heptan-1-yl)methanol]",≤ 10 nM,≤ 10 nM
